Laboratory results taken from patent US20070185012A1, “Glycopeptides for the treatment of als and other metabolic and autoimmune disorders” (priority 2003, published 2007).
Like-named read-outs stand apart in the source and are kept apart here.

Columns and labels:
ALS patients [1] = assay: Case reports of single ALS patients treated with glycopeptide (Examples 1-6)
[2] = orally administered; Lyons et al 2000; cited from earlier work
mice = conditions: cited from earlier work
[3] = Bioavailability, nasal versus oral administration; conditions: administered via the nasal route, compared with oral
[4] = in vivo; cited from earlier work
ALS patients [5] = assay: Twenty five ALS patients given aqueous intranasal spray of GMDP-A (Example 7); assay type: in vivo, human; conditions: 0.31 mg GMDP-A aqueous intranasal spray
[6] = Example 2: after 5 months of GMDP then GMDP-A
[7] = Example 5: GMDP-A intranasal spray 3 months

Compound: CC(=O)NC1C(OC2C(CO)OC(O)C(NC(C)=O)C2OC(C)C(=O)NC(C)C(=O)NC(CCC(=O)O)C(N)=O)OC(CO)C(O)C1O [GMDP, N-acetyl-D-glucosaminyl-(β1-4)-N-acetylmuramyl-L-alanylD-isoglutamine]
- voluntary motor function (ALS patients [1]; Example 1: 3 months, semi-weekly aqueous oral spray of GMDP): Continued voluntary motor improvement
- pulsox after removal of the oxygen (ALS patients [1]; Example 1: 14 hours after first 6 mg GMDP dose, ambient air (82% before therapy), no respiratory distress): 99%
- speech (ALS patients [1]; Example 1: after fourth day of 6 mg GMDP, first time in 18 months): began to speak soft-spoken words
- voluntary movement (ALS patients [1]; Example 1: day three, 6 mg GMDP aqueous oral spray): able to move all fingers on both hands excluding their thumbs
- time until small fingers responded to voluntary challenge (ALS patients [1]; Example 1: day two, additional 6 mg GMDP aqueous oral spray): ≤ 2 h
- pulsox (ALS patients [1]; Example 1: person, final stage bulbar onset ALS, on pure oxygen (94% before), 6 mg GMDP aqueous oral spray plus 400 mg luteolin/400 mg rutin four times a day, within 24 hours): 99%-100%
- time of peak improvement of voice and energy (ALS patients [1]; Example 2: 10 mg GMDP aqueous oral spray): one
- ALS progression (ALS patients [1]; [6]): no progression
- time to dramatic improvement of voice and energy (ALS patients [1]; Example 2: person, bulbar onset ALS, on 2000 mg luteolin and 2000 mg rutin per day, 10 mg GMDP aqueous oral spray): ≤ 40 min
- time to substantial improvement in leg strength and fasciculations (ALS patients [1]; Example 3: 1.51 mg GMDP intranasally per day, on luteolin/rutin): ≤ 24 h
- side effect (ALS patients [1]; Example 3: GMDP taken more frequently than every 96 hours): significant joint and muscle pain
- walking distance without AFO (ALS patients [1]; Example 3: after 2 weeks of daily GMDP (before: not over 15 meters with AFO)): up to 200 meters
- bioavailability [2]: low bioavailability
- LD50 (mice; acute toxicity in mice): 7000 mg/kg
- bioavailability [3]: improved
- pyrogenicity [4]: sufficiently low

Compound: CCCCCCCCCCCCCCCCCC(=O)NCCCC[C@H](NC(=O)CC[C@@H](NC(=O)[C@H](C)NC(=O)[C@@H](C)O[C@H]1[C@H](O)[C@@H](CO)OC(O)[C@@H]1NC(C)=O)C(N)=O)C(=O)O (stereo partly drawn) [muroctasin, reference compound]
- LD50 (mice; mice): 625 mg/kg

Compound: N-acetyl-D-glucosaminyl-(β1-4)-N-acetylmuramyl-L-alanylD-glutamic acid [GMDP-A]
- ALS progression (ALS patients [1]; [6]): no progression
- fasciculations (ALS patients [1]; Example 3: 0.93 mg GMDP-A every 96 hours): major reductions
- ALS progression and symptoms (ALS patients [1]; Example 3: 1.42 mg GMDP-A every 96 hours, after 4 months of therapy): abated all progression and symptoms of ALS
- arm function (ALS patients [1]; Example 4: 0.942 mg intranasal spray daily): ability to comb their hair and feed themself was restored
- reduction in fasciculations (ALS patients [1]; Example 4: 0.942 mg intranasal spray daily, within 2 days): 90%
- ALS progression (ALS patients [1]; Example 4: for 4 months): No progression
- disease progression (ALS patients [1]; [7]): no progression of disease
- mobility (ALS patients [1]; [7]): ability to stand with support and walk with a walker
- reduction in fasciculations (ALS patients [1]; Example 5: GMDP-A intranasal spray 3 months, 1.24/0.93/0.62/0.31/0.31 mg days one to five, 6 day cycle): 100%
- ALS symptoms (ALS patients [1]; Example 6: GMDP-A intranasal spray 1.42 mg every 96 hours, 3 months): cessation of their ALS symptoms
- time to reported symptom reduction and improvement (ALS patients [5]): 24 to 96 h
- patients reporting dramatic reductions in symptoms (fasciculations, muscle weakness, fatigue, choking) (ALS patients [5]; of twenty five ALS patients, 1-4 months): Twenty one
- bioavailability [3]: improved
